Test results reported in PubChem BioAssay (NCI).
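These data come from cells grown in 96-well plates and exposed to compound for 48 hours at five concentrations. GI50 is the concentration that inhibits growth by half. TGI: concentration producing complete growth inhibition.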

Key:
Experiment in all cases: NCI tumour cell line growth inhibition, 48 h
[1] = test system: 786-0 renal
[2] = test system: A498 renal
[3] = test system: A549 NSCLC
[4] = test system: ACHN renal
[5] = test system: BT-549 breast
[6] = test system: CAKI-1 renal
[7] = test system: CCRF-CEM leukemia
[8] = test system: COLO 205 colon
[9] = test system: DU-145 prostate
[10] = test system: EKVX NSCLC
[11] = test system: HCC-2998 colon
[12] = test system: HCT-116 colon
[13] = test system: HCT-15 colon
[14] = test system: HL-60(TB) leukemia
[15] = test system: HOP-62 NSCLC
[16] = test system: HOP-92 NSCLC
[17] = test system: HS 578T breast
[18] = test system: HT29 colon
[19] = test system: IGROV1 ovarian
[20] = test system: K-562 leukemia
[21] = test system: KM12 colon
[22] = test system: LOX IMVI melanoma
[23] = test system: M14 melanoma
[24] = test system: MALME-3M melanoma
[25] = test system: MCF7 breast
[26] = test system: MDA-MB-231 breast
[27] = test system: MDA-MB-435
[28] = test system: MOLT-4 leukemia
[29] = test system: NCI-H226 lung
[30] = test system: NCI-H23 lung
[31] = test system: NCI-H460 lung
[32] = test system: NCI-H522 lung
[33] = test system: NCI/ADR-RES ovarian
[34] = test system: OVCAR-3 ovarian
[35] = test system: OVCAR-5 ovarian
[36] = test system: OVCAR-8 ovarian
[37] = test system: PC-3 prostate
[38] = test system: RPMI-8226 leukemia
[39] = test system: RXF 393 renal
[40] = test system: SF-268 CNS
[41] = test system: SF-295 CNS
[42] = test system: SF-539 CNS
[43] = test system: SK-MEL-2 melanoma
[44] = test system: SK-MEL-28 melanoma
[45] = test system: SK-MEL-5 melanoma
[46] = test system: SK-OV-3 ovarian
[47] = test system: SN12C renal
[48] = test system: SNB-19 CNS
[49] = test system: SNB-75 CNS
[50] = test system: SR leukemia
[51] = test system: SW-620 colon
[52] = test system: T-47D breast
[53] = test system: TK-10 renal
[54] = test system: U251 CNS
[55] = test system: UACC-257 melanoma
[56] = test system: UACC-62 melanoma
[57] = test system: UO-31 renal

## C#COc1cccc(Nc2c(C#N)cnc3ncc(NC(=O)CCl)cc23)c1
[1]
  GI50: 36.6 µM
  TGI: > 62.5 µM
[2]
  GI50: 45.8 µM
  TGI: > 62.5 µM
[3]
  GI50: 46.9 µM
  TGI: > 62.5 µM
[4]
  GI50: 22.9 µM
  TGI: > 62.5 µM
[5]
  GI50: > 62.5 µM
  TGI: > 62.5 µM
[6]
  GI50: > 62.5 µM
  TGI: > 62.5 µM
[7]
  GI50: 3.72 µM
  TGI: > 62.5 µM
[8]
  GI50: 40.1 µM
  TGI: > 62.5 µM
[9]
  GI50: 42.1 µM
  TGI: > 62.5 µM
[10]
  GI50: > 62.5 µM
  TGI: > 62.5 µM
[11]
  GI50: > 62.5 µM
  TGI: > 62.5 µM
[12]
  GI50: 14.8 µM
  TGI: > 62.5 µM
[13]
  GI50: > 62.5 µM
  TGI: > 62.5 µM
[14]
  GI50: 41 µM
  TGI: > 62.5 µM
[15]
  GI50: > 62.5 µM
  TGI: > 62.5 µM
[16]
  GI50: > 62.5 µM
  TGI: > 62.5 µM
[17]
  GI50: > 62.5 µM
  TGI: > 62.5 µM
[18]
  GI50: 21.8 µM
  TGI: > 62.5 µM
[19]
  GI50: 17.1 µM
  TGI: > 62.5 µM
[20]
  GI50: 25.9 µM
  TGI: > 62.5 µM
[21]
  GI50: 56.7 µM
  TGI: > 62.5 µM
[22]
  GI50: 28.8 µM
  TGI: > 62.5 µM
[23]
  GI50: > 62.5 µM
  TGI: > 62.5 µM
[24]
  GI50: 55.4 µM
  TGI: > 62.5 µM
[25]
  GI50: 12.8 µM
  TGI: > 62.5 µM
[26]
  GI50: 32 µM
  TGI: > 62.5 µM
[27]
  GI50: > 62.5 µM
  TGI: > 62.5 µM
[28]
  GI50: 4.2 µM
  TGI: > 62.5 µM
[29]
  GI50: > 62.5 µM
  TGI: > 62.5 µM
[30]
  GI50: > 62.5 µM
  TGI: > 62.5 µM
[31]
  GI50: 31.9 µM
  TGI: > 62.5 µM
[32]
  GI50: 9.77 µM
  TGI: 21.4 µM
[33]
  GI50: > 62.5 µM
  TGI: > 62.5 µM
[34]
  GI50: 25.3 µM
  TGI: > 62.5 µM
[35]
  GI50: > 62.5 µM
  TGI: > 62.5 µM
[36]
  GI50: 46 µM
  TGI: > 62.5 µM
[37]
  GI50: 32.5 µM
  TGI: > 62.5 µM
[38]
  GI50: > 62.5 µM
  TGI: > 62.5 µM
[39]
  GI50: > 62.5 µM
  TGI: > 62.5 µM
[40]
  GI50: 20.6 µM
  TGI: > 62.5 µM
[41]
  GI50: > 62.5 µM
  TGI: > 62.5 µM
[42]
  GI50: 13.9 µM
  TGI: 37.6 µM
[43]
  GI50: > 62.5 µM
  TGI: > 62.5 µM
[44]
  GI50: > 62.5 µM
  TGI: > 62.5 µM
[45]
  GI50: > 62.5 µM
  TGI: > 62.5 µM
[46]
  GI50: > 62.5 µM
  TGI: > 62.5 µM
[47]
  GI50: 16.2 µM
  TGI: > 62.5 µM
[48]
  GI50: 32.1 µM
  TGI: > 62.5 µM
[49]
  GI50: 45.4 µM
  TGI: > 62.5 µM
[50]
  GI50: 17.6 µM
  TGI: > 62.5 µM
[51]
  GI50: 19.8 µM
  TGI: > 62.5 µM
[52]
  GI50: 23.3 µM
  TGI: > 62.5 µM
[53]
  GI50: > 62.5 µM
  TGI: > 62.5 µM
[54]
  GI50: 12.5 µM
  TGI: 53.6 µM
[55]
  GI50: > 62.5 µM
  TGI: > 62.5 µM
[56]
  GI50: 35.7 µM
  TGI: > 62.5 µM
[57]
  GI50: 35.1 µM
  TGI: > 62.5 µM
